Patent US6479544B1, “Therapeutic combinations of fatty acids” (Laxdale Limited, priority 2001, dated 2002)
Read-outs that look alike come from different tables or passages of the source.

What was measured:
[1] = tested on: patients with schizophrenia; test: Pilot study of AA alone in five patients with schizophrenia; type: in vivo, human; settings: AA given alone
Text: This interpretation was supported by a pilot study in which AA itself was given to five patients with schizophrenia. […] The administration of AA, without EPA to inhibit phospholipases, may lead to increased formation of eicosanoids rather than to incorporation of AA into phospholipids.

[2] = tested on: patients with schizophrenia; test: AA given to two patients who had already been taking EPA; type: in vivo, human; settings: AA 1 g/day added in two patients already taking 2 g/day EPA for 3 months
Text: The conclusion to be drawn from these studies is that EPA is desirable, not in itself but because it raises the AA level in membrane phospholipids. High doses of EPA, far from being valuable in themselves, may be undesirable because they lead to excessive loss of AA from membranes. The way to get around this issue, and to boost the clearly desirable effects of EPA, is to keep to relatively low doses of EPA, but also to boost the level of AA by administering the EPA with either AA or one of its precursors, DGLA or gamma-linolenic acid GLA.

[3] = tested on: schizophrenia in patients; test: Trial of placebo and three doses of EPA in schizophrenia patients also taking clozapine, assessed by PANSS at baseline and 12 weeks; type: in vivo, human
Description: A trial was conducted of the administration of a placebo and three different doses of EPA, 1 g, 2 g and 4 g/day in the treatment of schizophrenia in patients who were also taking the antischizophrenic drug clozapine. […] 31 patents were entered into the study and followed for 12 weeks. They were assessed at baseline and 12 weeks using the Positive and Negative Symptom Scale for Schizophrenia (PANSS). Placebo produced a small effect, 1 g/day produced a larger effect, 2 g/day produced a large effect of 26.0% compared to the usual 15-20% improvements on this scale generated by existing drugs for schizophrenia.

[4] = type: in vivo, human; settings: + means a rise, − a fall
Description: In these patients, and also in a further series of patients, the levels of DGLA, AA, EPA and DHA were measured in human red cells before starting treatment and after 12 weeks. As expected there was a dose-related rise in EPA which was greater the greater the dose. It was also expected that there would be a progressive decline in AA, the larger the EPA dose, the greater the fall in AA.

Structure (SMILES) | Condition of patients with schizophrenia [1] | Condition of patients with schizophrenia [2] | Percentage improvement from baseline to 12 weeks on PANSS ([3]; 2 g/day) [%] | Percentage improvement from baseline to 12 weeks on PANSS ([3]; 1 g/day) [%] | Percentage improvement from baseline to 12 weeks on PANSS ([3]; 4 g/day) [%] | Change from baseline to 12 weeks in red cell concentration of AA ([4]; 1 g/d) | Change from baseline to 12 weeks in red cell concentration of AA ([4]; 2 g/d) | Change from baseline to 12 weeks in red cell concentration of AA ([4]; 4 g/d) [µg/g]
CCCCC/C=C\C/C=C\C/C=C\C/C=C\CCCC(=O)O [AA, arachidonic acid] | their condition deteriorated | substantial further improvement | – | – | – | – | – | –
CC/C=C\C/C=C\C/C=C\C/C=C\C/C=C\CCCC(=O)O [EPA, eicosapentaenoic acid] | – | – | 26.0 | – | – | – | – | –
CC/C=C\C/C=C\C/C=C\C/C=C\C/C=C\CCCC(=O)OCC [ethyl eicosapentaenoate] | – | – | 26.0 | 18.3 | 16.3 | +2.7 μg/g | +29.4 μg/g | -26.5
